# Assay results reported in PubChem BioAssay (NCI).
#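 Values below derive from 48-hour exposures of cells grown in 96-well plates, with endpoints linearly interpolated between the two concentrations bracketing the appropriate inhibition level. TGI: concentration producing complete growth inhibition.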
# Key:
# Assay in all cases: inhibition of tumour cell growth, NCI panel, 48 h
# SR leukemia = test system: SR leukemia
# KM12 colon = test system: KM12 colon
# UACC-257 melanoma = test system: UACC-257 melanoma
# LOX IMVI melanoma = test system: LOX IMVI melanoma
# HS 578T breast = test system: HS 578T breast
# RXF 393 renal = test system: RXF 393 renal
# HOP-92 NSCLC = test system: HOP-92 NSCLC
# HL-60(TB) leukemia = test system: HL-60(TB) leukemia
# HT29 colon = test system: HT29 colon
# OVCAR-4 ovarian = test system: OVCAR-4 ovarian
# NCI-H460 lung = test system: NCI-H460 lung
SMILES,TGI (SR leukemia) [µM],TGI (KM12 colon) [µM],TGI (UACC-257 melanoma) [µM],TGI (LOX IMVI melanoma) [µM],TGI (HS 578T breast) [µM],TGI (RXF 393 renal) [µM],TGI (HOP-92 NSCLC) [µM],TGI (HL-60(TB) leukemia) [µM],TGI (HT29 colon) [µM],TGI (OVCAR-4 ovarian) [µM],TGI (NCI-H460 lung) [µM]
COC1(OC)N=C(N)C2(C#N)C(C)CC(=O)N(N(C)C)C12C#N (centres undefined),> 100,> 100,> 100,> 100,> 100,> 100,> 100,> 100,> 100,,
C#CC(O)/C=C/CCCCCCC#CC/C=C\CC#CCCCCCC/C=C/C(O)C#C (centres undefined),18,5.29,8.57,0.0282,15,28.3,5.57,3.86,6.86,10.1,16.3
COC(=O)C1OC(O[C@H]2CC[C@]3(C)[C@H]4CC=C5[C@@H]6CC(C)(C)CC[C@]6(C(=O)OC)[C@H](O)C[C@@]5(C)[C@]4(C)CC[C@H]3C2(C)C)C(O)C(O)C1O (some centres undefined),15.9,4.21,29.1,17.1,34.1,18.1,30.5,13.7,13.5,19.7,22.7
COc1cc(/C=C2\N=C(c3ccccc3)N(C3Nc4cc5c(cc4S3)NC(N3C(=O)/C(=C/c4cc(OC)c(OC)c(OC)c4)N=C3c3ccccc3)S5)C2=O)cc(OC)c1OC (centres undefined),> 100,> 100,> 100,> 100,> 100,> 100,> 100,> 100,> 100,> 100,> 100
COc1nn(Cc2ccccc2F)c2ccc([N+](=O)[O-])cc12,> 100,> 100,> 100,> 100,> 100,> 83.6,> 100,> 100,> 100,> 100,> 100
Oc1ccc(-c2nc3cc(C(F)(F)F)ccc3n2CC2CCCN3CCCCC23)cc1 (centres undefined),35.8,29.3,30.3,28.8,31.5,34.5,28.5,12.3,34.7,31.2,28.3
COc1ccc(-c2cc(-c3ccc(Nc4ccnc5cc(C(F)(F)F)ccc45)cc3)[nH]c(=O)c2C#N)c2ccccc12,> 48.9,> 100,> 100,> 49.7,> 100,46.1,> 100,> 100,> 74.2,> 100,> 100
COC1=CC(=O)C(O)=C(C[C@@]2(C)[C@@H]3CCC[C@H](COC(=O)CCCCCNC(=O)OC(C)(C)C)[C@@]3(C)CC[C@@H]2C)C1=O,> 10,> 10,> 10,> 10,> 10,> 10,> 10,> 10,> 10,> 10,
O=C(O)c1c(CC(Cc2ccc3c(c2)CCCC3)C(=O)O)ccc2c1CCCC2 (centres undefined),> 100,> 100,> 100,> 100,> 100,> 100,> 100,> 100,> 100,,> 100
COc1ccc(/C=C2\CN(C)CC3=C2OC(N)=C(C#N)C3c2ccc(OC)cc2)cc1 (centres undefined),> 100,> 100,> 100,> 100,> 100,> 86.9,59.3,> 27.6,> 100,> 100,> 100
N#CCCC(CC#N)N1CCN(CCO)CC1 (centres undefined),> 100,> 100,> 100,,> 100,> 100,> 100,> 100,> 100,> 100,> 100
COC(=O)[C@H]1[C@H](C(=O)OC)[C@@H](C)c2c(ccc3c2[nH]c2ccccc23)[C@@H]1C,> 100,> 100,66.3,> 100,> 100,82.9,> 100,> 100,> 100,> 100,> 100
C=CCN1C(=O)/C(=C/c2ccc(C)cc2)N=C1SC/C=C/C,42.4,> 100,> 100,44.5,> 100,46.8,90.9,47.9,> 100,> 100,> 100
C=C1C(=O)OC2/C=C(\C)C(O)CC(O)C(C)(O)CC(OC(=O)/C(C)=C/C)C12 (centres undefined),> 55.9,> 75.8,> 100,> 100,> 100,> 100,99.8,> 82.8,> 100,> 100,> 100
O=C1CC(Br)c2c(Cl)sc(Cl)c21 (centres undefined),32.2,20.2,15,4.4,47,4.91,29.6,6.9,41.7,,34.8
